The values below come from publication PMC12040169 (PLOS Biology, 2025).

Structures are written as SMILES.

The term viability denotes a read-out of living cells in per cent, often relative to untreated cells.

The data set in a line: in vitro. Conditions: human, hela cells, % viability.
Consider `COCCCN1C(=O)C(O)=C(C(=O)c2ccc(C)o2)C1c1ccc(OC)cc1` (stereo not shown) [CBK264863], for which the viability at 28.5 h, 10 µM was 103%.
Consider `COc1cccc(C2C(C(=O)c3ccc(Cl)cc3)=C(O)C(=O)N2CCCN2CCOCC2)c1` (stereo not shown) [CBK264865], for which the viability at 28.5 h, 10 µM is 105%.
The value for `O=C(O)CCC(=O)Nc1ccc(S(=O)(=O)Nc2ccc(I)cc2)cc1` [CBK264866] was 99.9%; that for `O=C(Nc1ccc(S(=O)(=O)Nc2ncccn2)cc1)c1ccc(N2C(=O)c3ccccc3C2=O)cc1` [CBK264868] was 94%.
Take `COc1ccc(C(=O)C2=C(O)C(=O)N(CCCN(C)C)C2c2ccncc2)cc1C` (stereo not shown) [CBK264871]: the viability at 28.5 h, 10 µM was 102%.
The value for `COc1cccc(C(=O)COC(=O)c2ccc3c(c2)C(=O)N(c2ccc(C(C)=O)cc2)C3=O)c1` [CBK264872] was 84%; that for `COC(=O)CNC(=O)c1ccc(S(=O)(=O)N2CCOCC2)cc1` [CBK264873] was 109%; that for `COc1ccc(C(=O)C2=C(O)C(=O)N(CCN(C)C)C2c2cccc([N+](=O)[O-])c2)cc1C` (stereo not shown) [CBK264875] was 85.2%.
The result for `Cc1cccc(C)c1NC(=O)CN(c1ccc(F)cc1)S(=O)(=O)c1ccc2c(c1)OCCO2` [CBK264878] reads 104%.
For `Cc1ccc(C)c(NC(=S)NCCc2ccc(S(N)(=O)=O)cc2)c1` [CBK264879], the viability at 28.5 h, 10 µM was 100%.
Regarding `COC(=O)CNC(=O)c1ccc(S(=O)(=O)N2CCCC2)cc1` [CBK264880], the viability at 28.5 h, 10 µM came to 88.4%.
Consider `O=C1c2cccc3cccc(c23)C(=O)N1CCN1CCN(CC(O)COc2ccc(Cl)cc2Cl)CC1` (stereo not shown) [CBK264881], for which the viability at 28.5 h, 10 µM stood at 94.5%.
The result for `Cc1ccc(-c2nnc3s/c(=C\c4ccc([N+](=O)[O-])cc4)c(=O)n23)cc1` [CBK264882] reads 101%; that for `CC1CCc2sc3ncnc(N4CCN(CCOC(c5ccccc5)c5ccccc5)CC4)c3c2C1` (stereo not shown) [CBK264884], 86.6%.
The value for `O=C(OCn1nnc2ccccc2c1=O)c1cccc([N+](=O)[O-])c1` [CBK264887] was 104%.
For `Cc1cccc(NC(=S)NCCc2ccc(S(N)(=O)=O)cc2)c1C` [CBK264889], the viability at 28.5 h, 10 µM worked out at 86.5%.
The value for `Cc1cc(C)cc(NS(=O)(=O)c2ccc(NC(=O)C(C)Oc3ccc(Cl)cc3Cl)cc2)c1` (stereo not shown) [CBK264894] was 108%; that for `COc1ccc(C(=O)C2=C(O)C(=O)N(CCCN(C)C)C2c2ccc(Cl)c(Cl)c2)c(C)c1` (stereo not shown) [CBK264896] was 98.8%; that for `Cc1ccc(C(=O)C(NC(=O)c2cccs2)Nc2ccc(S(N)(=O)=O)cc2)cc1` (stereo not shown) [CBK264897] was 89%.
Turning to `Cc1c(Cl)cccc1NC(=S)N1CCC(C(N)=O)(N2CCCCC2)CC1` [CBK264900], the viability at 28.5 h, 10 µM was 112%.
Turning to `NS(=O)(=O)c1ccc(NS(=O)(=O)c2ccc(NC(=O)Nc3ccc(Cl)cc3)cc2)cc1` [CBK264902], the viability at 28.5 h, 10 µM was 90.9%.
The result for `Cc1cccn2c(=O)c(/C=C3\SC(=S)NC3=O)c(NCCCN3CCOCC3)nc12` [CBK264904] reads 104%; that for `COc1ccc(C(=O)C2=C(O)C(=O)N(Cc3cccnc3)C2c2cccc(OC)c2OC)cc1C` (stereo not shown) [CBK264906], 92.8%.
With `CC(C)c1ccc2oc(-c3ccc(NC(=S)NC(=O)c4cncc(Br)c4)cc3)nc2c1` [CBK264913], the viability at 28.5 h, 10 µM came out at 106%.
`O=c1oc2cc(Oc3ccc([N+](=O)[O-])cc3C(F)(F)F)c(Cl)cc2c2c1CCCC2` [CBK264914]: the viability at 28.5 h, 10 µM is 93.7%.
The result for `O=c1[nH]c2ccccc2n1CCCSc1nnc2c(n1)[nH]c1ccccc12` [CBK264917] reads 118%; that for `CC(C)Oc1ccc(C(=O)C2=C(O)C(=O)N(Cc3cccnc3)C2c2ccncc2)cc1` (stereo not shown) [CBK264920], 90%.
Regarding `O=C(CN1CCCCC1)NCCNc1ccc([N+](=O)[O-])cc1Cl` [CBK264922], the viability at 28.5 h, 10 µM was determined as 115%.
The value for `Cc1noc(NS(=O)(=O)c2ccc(NC(=O)C3COc4ccccc4O3)cc2)c1C` (stereo not shown) [CBK264923] was 90.1%; that for `Cc1ccc(C23CC4CC(CC(C(=O)NC(C(=O)O)C(C)C)(C4)C2)C3)cc1` (stereo not shown) [CBK264924] was 110%.
For the compound `COc1ccc(C(=O)/C=C/c2cccs2)c(OC(=O)c2ccc([N+](=O)[O-])cc2)c1` [CBK264926], the viability at 28.5 h, 10 µM was 118%.
The value for `COc1ccc(OC)c(NC(=S)NCCN2CCOCC2)c1` [CBK264927] was 96.9%; that for `COc1ccc(C(=O)C2=C(O)C(=O)N(Cc3cccnc3)C2c2ccc(OC)cc2OC)c(C)c1` (stereo not shown) [CBK264928] was 89.7%.
The result for `CC(=O)Nc1ccc(Nc2ncnc3scc(-c4ccccc4)c23)cc1` [CBK264930] reads 93.6%; that for `COc1cc(C2C(C(=O)c3ccc(C)o3)=C(O)C(=O)N2Cc2cccnc2)cc(OC)c1OC` (stereo not shown) [CBK264933], 110%; that for `CC(NC(=O)/C(=C\c1ccccc1)NC(=O)c1ccc(Br)o1)C(=O)O` (stereo not shown) [CBK264934], 107%.
The result for `COc1cc(NC(=S)NCc2ccc(S(N)(=O)=O)cc2)cc(OC)c1` [CBK264935] reads 108%; that for `CC(C)Oc1ccc(C(=O)C2=C(O)C(=O)N(Cc3cccnc3)C2c2cccc([N+](=O)[O-])c2)cc1` (stereo not shown) [CBK264936], 89.2%.
For the compound `COC(=O)CC1C(=O)NCCN1C(=O)COc1ccc(Cl)cc1` (stereo not shown) [CBK264938], the viability at 28.5 h, 10 µM was 80%.
For `CCc1cc(-c2[nH]nc(C)c2Oc2ccc(C(C)C)cc2)c(O)cc1O` [CBK264940], the viability at 28.5 h, 10 µM stood at 90.7%.
The result for `CC/C(=C\c1sc2ccc3ccccc3c2[n+]1CCCS(=O)[O-])SC` [CBK264941] reads 107%; that for `COC(=O)c1c(C)oc2cc(Br)c(OCC(=O)c3ccc(Cl)cc3)cc12` [CBK264946], 83.5%.
On to `COc1cc(CCN2C(=O)c3cccc4cccc(c34)C2=O)c(S(=O)(=O)N2CCCC2)cc1OC` [CBK264947], for which the viability at 28.5 h, 10 µM came to 102%.
The result for `O=C(Nc1ccccc1C(=O)N1CCN(Cc2ccccc2)CC1)c1ccc(F)cc1` [CBK264948] reads 99.3%.
Regarding `CCOC(=O)c1c(C(C)(C)C)oc2ccc(OCC(=O)c3ccc(OC)cc3)cc12` [CBK264950], the viability at 28.5 h, 10 µM is 123%.
As for `O=[N+]([O-])c1ccc(N2CCN(S(=O)(=O)Cc3ccccc3)CC2)cc1N1CCN(Cc2ccccc2)CC1` [CBK264951], the viability at 28.5 h, 10 µM worked out at 101%.
In the case of `Nc1nc(SCC(=O)NCCCO)nc2sc3c(c12)CCC3` [CBK264952], the viability at 28.5 h, 10 µM is 88.7%.
Regarding `O=C1NC2(Nc3ccccc31)C(=O)N(Cc1cccc3ccccc13)c1ccccc12` (stereo not shown) [CBK264954], the viability at 28.5 h, 10 µM was 108%.
Consider `COc1cc([N+](=O)[O-])ccc1NC(=O)C1CC(Cl)=CCC1C(=O)O` (stereo not shown) [CBK264956], for which the viability at 28.5 h, 10 µM stood at 88.8%.
As for `O=C(NCc1ccccn1)C1CCN(S(=O)(=O)c2ccc(Cl)cc2)CC1` [CBK264959], the viability at 28.5 h, 10 µM came to 90.2%.
Take `CC(C)(C)C(=O)CSc1nnc(-c2ccccc2)n1Cc1ccccc1` [CBK264960]: the viability at 28.5 h, 10 µM amounted to 108%.
Consider `CCCCOC(=O)c1c(N)n(CCOC)c2nc3ccccc3nc12` [CBK264961], for which the viability at 28.5 h, 10 µM was 96.9%.
As for `CCOc1cc(/C=C2/SC(=S)N(c3cccc(C(F)(F)F)c3)C2=O)ccc1OCC(=O)O` [CBK264965], the viability at 28.5 h, 10 µM is 106%.
Consider `CCOc1cc(/C=C2/SC(=S)N(c3cccc(Cl)c3)C2=O)ccc1OCC(=O)O` [CBK264966], for which the viability at 28.5 h, 10 µM was 94.2%.
The result for `Cc1ccc(S(=O)(=O)NCCCC(=O)Oc2cc3oc(=O)c4c(c3cc2Cl)CCC4)cc1` [CBK264967] reads 86.8%.
Take `Cc1cc(Br)cc(C)c1NC(=O)CSc1nnc(COc2ccccc2Cl)o1` [CBK264968]: the viability at 28.5 h, 10 µM was found to be 93%.
The value for `Cc1ccc(S(=O)(=O)N(C)c2c(C)ccc(S(=O)(=O)N(C)CCO)c2C)cc1` [CBK264970] was 85.5%; that for `COc1cc(S(=O)(=O)NCc2ccc3c(c2)OCO3)c(OC)cc1Cl` [CBK264972] was 97.1%.
The value for `O=S(=O)(NCCN1CCOCC1)c1ccc(Cl)c(Cl)c1Cl` [CBK264973] was 109%; that for `O=C(/C=C/c1ccco1)Nc1cccc2c(NC(=O)/C=C/c3ccco3)cccc12` [CBK264974] was 99.7%; that for `O=C(Cn1cnc2ccccc2c1=O)Oc1cccc(NC2=NS(=O)(=O)c3ccccc32)c1` [CBK264975] was 83.6%.
The result for `CCOC(=O)c1c(N)n(-c2cccc(C(F)(F)F)c2)c2nc3ccccc3nc12` [CBK264977] reads 95.6%; that for `COc1ccc(-c2nc3cc(NC(=O)C(c4ccccc4)c4ccccc4)ccc3o2)cc1` [CBK264980], 113%; that for `CCCCC12CN3CCN(CC(C3)/C1=N\N=C1/C3CN4CCN(C3)CC1(CCCC)C4)C2` [CBK264981], 104%.
Turning to `O=C1N=C(Nc2cccc(C(=O)O)c2)S/C1=C/c1cccc(O)c1` [CBK264984], the viability at 28.5 h, 10 µM was determined as 92.5%.
With `Cc1cccc(C(=O)NC(=S)Nc2cccc(C(=O)O)c2)c1` [CBK264987], the viability at 28.5 h, 10 µM came to 121%.
Consider `Cc1nc(CC(=O)O)c(-c2ccccc2)s1` [CBK264988], for which the viability at 28.5 h, 10 µM was 110%.
The value for `O=C(CSc1ccc(Cl)cc1)Nc1cccc(-c2nc3ncccc3o2)c1` [CBK264989] was 105%.
Consider `Cc1ccc(S(=O)(=O)NCCCN2CCOCC2)c(C)c1C` [CBK264990], for which the viability at 28.5 h, 10 µM came out at 89.7%.
The result for `CC(=O)Nc1cc(Cl)ccc1OS(=O)(=O)c1ccc(Cl)cc1` [CBK264992] reads 90.3%; that for `CC(NC(=O)CSc1nnc(-c2ccc(Cl)cc2)n1-c1ccccc1)c1ccccc1` (stereo not shown) [CBK264993], 87%.
The result for `COc1ccc(/C=C(/NC(=O)/C=C/c2ccccc2)C(=O)O)cc1` [CBK264996] reads 94.8%; that for `C=CCN(CC=C)Cc1c(C)nc2ccc(CC)cc2c1O` [CBK264998], 92.6%.
